According to PubChem BioAssay (NCI):
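Five compound concentrations were applied to cells in 96-well plates for 48 hours; endpoints were derived by simple linear interpolation of the resulting dose-response curve. GI50: concentration for 50% inhibition of growth. Definition used: TGI = concentration required for complete inhibition of growth.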

Assays:
Test in all cases: NCI anticancer screen, dose series, 48 h
PC-3 prostate = test system: PC-3 prostate
CCRF-CEM leukemia = test system: CCRF-CEM leukemia
SF-539 CNS = test system: SF-539 CNS
ACHN renal = test system: ACHN renal
HOP-92 NSCLC = test system: HOP-92 NSCLC
RXF 393 renal = test system: RXF 393 renal
COLO 205 colon = test system: COLO 205 colon
OVCAR-3 ovarian = test system: OVCAR-3 ovarian
OVCAR-4 ovarian = test system: OVCAR-4 ovarian
SF-268 CNS = test system: SF-268 CNS
LOX IMVI melanoma = test system: LOX IMVI melanoma
NCI-H23 lung = test system: NCI-H23 lung
RPMI-8226 leukemia = test system: RPMI-8226 leukemia
MCF7 breast = test system: MCF7 breast
HS 578T breast = test system: HS 578T breast
SNB-19 CNS = test system: SNB-19 CNS
SK-MEL-5 melanoma = test system: SK-MEL-5 melanoma
HOP-62 NSCLC = test system: HOP-62 NSCLC
TK-10 renal = test system: TK-10 renal
MDA-MB-231 breast = test system: MDA-MB-231 breast
SNB-75 CNS = test system: SNB-75 CNS
786-0 renal = test system: 786-0 renal
NCI-H226 lung = test system: NCI-H226 lung
HT29 colon = test system: HT29 colon
SF-295 CNS = test system: SF-295 CNS
MALME-3M melanoma = test system: MALME-3M melanoma
MDA-MB-435 = test system: MDA-MB-435

CC(C)[C@]12O[C@H]1[C@@H]1O[C@]13[C@]1(O[C@H]1C[C@H]1C4=C(CC[C@@]13C)C(=O)OC4)[C@@H]2OC(=O)CN(C)C
GI50 (PC-3 prostate): 21.8 nM
TGI (PC-3 prostate): > 100000 nM
GI50 (CCRF-CEM leukemia): 31.5 nM
GI50 (SF-539 CNS): 41.1 nM
TGI (SF-539 CNS): 332 nM
GI50 (ACHN renal): 21 nM
TGI (ACHN renal): > 100000 nM
GI50 (HOP-92 NSCLC): 38.3 nM
GI50 (RXF 393 renal): 15.7 nM
TGI (RXF 393 renal): 33.6 nM
GI50 (COLO 205 colon): 17 nM
TGI (COLO 205 colon): 42.4 nM
GI50 (OVCAR-3 ovarian): 20.8 nM
TGI (OVCAR-3 ovarian): 63.3 nM
GI50 (OVCAR-4 ovarian): 32.6 nM
TGI (OVCAR-4 ovarian): > 46200 nM
GI50 (SF-268 CNS): 37 nM
TGI (SF-268 CNS): 367 nM
GI50 (LOX IMVI melanoma): 10.1 nM
TGI (LOX IMVI melanoma): > 100000 nM
GI50 (NCI-H23 lung): 11.6 nM
GI50 (RPMI-8226 leukemia): 18.1 nM
TGI (RPMI-8226 leukemia): > 100000 nM
GI50 (MCF7 breast): 22 nM
TGI (MCF7 breast): > 100000 nM
GI50 (HS 578T breast): 22.7 nM
TGI (HS 578T breast): 88.9 nM
GI50 (SNB-19 CNS): 286 nM
TGI (SNB-19 CNS): > 100000 nM
GI50 (SK-MEL-5 melanoma): 15.2 nM
TGI (SK-MEL-5 melanoma): 39.6 nM
GI50 (HOP-62 NSCLC): 31.4 nM
GI50 (TK-10 renal): 48 nM
TGI (TK-10 renal): > 100000 nM
GI50 (MDA-MB-231 breast): 57.8 nM
TGI (MDA-MB-231 breast): > 100000 nM
GI50 (SNB-75 CNS): 28.6 nM
TGI (SNB-75 CNS): 141 nM
GI50 (786-0 renal): 32.6 nM
TGI (786-0 renal): > 100000 nM
GI50 (NCI-H226 lung): 19.1 nM
TGI (NCI-H226 lung): 178 nM
GI50 (HT29 colon): 17.9 nM
TGI (HT29 colon): > 100000 nM
GI50 (SF-295 CNS): 77.7 nM
TGI (SF-295 CNS): > 100000 nM
GI50 (MALME-3M melanoma): 19.3 nM
TGI (MALME-3M melanoma): 73.3 nM
GI50 (MDA-MB-435): 17.6 nM
TGI (MDA-MB-435): 74.8 nM
